# Source: patent US20260224583A1, “COMPOSITIONS USEFUL FOR MODULATING SPLICING” (Skyhawk Therapeutics, Inc., priority 2023, published 2026)
# Tested on: ATXN3 transcripts containing exon 4 (E4E5)
# Experiment: ATXN3 Quantitative Splicing Assay (qPCR, E4E5 primers/probe)
# Assay type: cell-based
# Settings: Homo sapiens; SK-N-MC cells, 24 h treatment, 30 μM to 0.6 nM; read-out: ATXN3 Potency - Splicing E4E5 IC50
# Procedure: Human neuroblastoma SK-N-MC cells were plated in 384-well plates at 20,000 cells/well. Twenty-four hours after plating, cells were treated with compounds for 24 h at appropriate concentrations ranging from 30 μM to 0.6 nM (0.3% DMSO). Treated cells were lysed in 15 μL of lysis buffer, and cDNA was synthesized using the Fast Advanced Cells-to-Ct kit. Two μL of each cDNA was used in qPCR reactions to confirm the exon 4 skipped transcripts of ATXN3. A second set of primers/probe E4E5 was used to detect the transcripts containing exon 4. The third set of primers/probe E8E9 was used to detect total gene level of ATXN3. The qPCR reactions were prepared in 384-well plates in 10 μL volume, using TaqMan™ Fast Advanced Master Mix with primers and probes shown in the table below. Reactions were run in a Quant Studio 6 qPCR instrument with default settings.
# The primers and probes are listed below in Table 3.
row,IC50,SMILES
1,101 to 500 nM,"N[C@@H](COC(F)F)Cc1cc2c(NCc3ccco3)nc(Cl)nn2c1Br [Compound 6, (R)-6-(2-amino-3-(difluoromethoxy)propyl)-7-bromo-2-chloro-N-(furan-2-ylmethyl)pyrrolo[2,1-f][1,2,4]triazin-4-amine]"
2,101 to 500 nM,"COC[C@H](N)Cc1cc2c(NCc3ccco3)nc(Cl)nn2c1Cl [Compound 7, (R)-6-(2-amino-3-methoxypropyl)-2,7-dichloro-N-(furan-2-ylmethyl)pyrrolo[2,1-f][1,2,4]triazin-4-amine]"
3,101 to 500 nM,N[C@@H](CCOC(F)(F)F)Cc1cc2c(NCc3ccco3)nc(Cl)nn2c1Br [Compound 15]
4,0.01 to 100 nM,"C[C@H](F)[C@H](N)Cc1cc2c(NCc3ccco3)nc(Cl)nn2c1Br [Compound 1, 6-((2R,3S)-2-amino-3-fluorobutyl)-7-bromo-2-chloro-N-(furan-2-ylmethyl)pyrrolo[2,1-f][1,2,4]triazin-4-amine]"
5,0.01 to 100 nM,"N[C@@H](CF)Cc1cc2c(NCc3ccco3)nc(Cl)nn2c1Br [Compound 4, (R)-6-(2-amino-3-fluoropropyl)-7-bromo-2-chloro-N-(furan-2-ylmethyl)pyrrolo[2,1-f][1,2,4]triazin-4-amine]"
6,101 to 500 nM,COC[C@H](N)Cc1cc2c(NCc3ccco3)nc(Cl)nn2c1Br [Compound 8]
7,101 to 500 nM,"C[C@H](F)[C@H](N)Cc1cc2c(NCc3ccco3)nc(Cl)nn2c1Cl [Compound 2, 6-((2R,3S)-2-amino-3-fluorobutyl)-2,7-dichloro-N-(furan-2-ylmethyl)pyrrolo[2,1-f][1,2,4]triazin-4-amine]"
8,0.01 to 100 nM,"N[C@@H](CF)Cc1cc2c(NCc3ccco3)nc(Cl)nn2c1Cl [Compound 3, (R)-6-(2-amino-3-fluoropropyl)-2,7-dichloro-N-(furan-2-ylmethyl)pyrrolo[2,1-f][1,2,4]triazin-4-amine]"
9,101 to 500 nM,N[C@H](Cc1cc2c(NCc3ccco3)nc(Cl)nn2c1Br)CC1CC1 [Compound 13]
10,0.01 to 100 nM,N[C@@H](CCOC(F)F)Cc1cc2c(NCc3ccco3)nc(Cl)nn2c1Br [Compound 16]
11,101 to 500 nM,N[C@H](Cc1cc2c(NCc3ccco3)nc(Cl)nn2c1Cl)CC1CC1 [Compound 17]
12,101 to 500 nM,N[C@H](Cc1cc2c(NCc3ccco3)nc(Cl)nn2c1Br)CC(F)(F)F [Compound 14]
13,101 to 500 nM,"N[C@@H](COC(F)F)Cc1cc2c(NCc3ccco3)nc(Cl)nn2c1Cl [Compound 5, (R)-6-(2-amino-3-(difluoromethoxy)propyl)-2,7-dichloro-N-(furan-2-ylmethyl)pyrrolo[2,1-f][1,2,4]triazin-4-amine]"
14,101 to 500 nM,[2H]C([2H])([2H])OCC(N)Cc1cc2c(NCc3ccco3)nc(Cl)nn2c1Br (centres unmarked) [Compound 11]
15,101 to 500 nM,[2H]C([2H])([2H])OC[C@H](N)Cc1cc2c(NCc3ccco3)nc(Cl)nn2c1Cl [Compound 12]

row,SMILES,IC50
1,C[C@H](N)Cc1cc2c(NCc3ccco3)nc(Cl)nn2c1Br [Compound 10],101 to 500 nM
2,C[C@H](N)Cc1cc2c(NCc3ccco3)nc(Cl)nn2c1Cl [Compound 9],0.01 to 100 nM
